Assay results as given in US11673860B2, “Crystalline siponimod fumaric acid and polymorphs thereof” (TEVA PHARMACEUTICALS INTERNATIONAL GMBH, priority 2018, dated 2023).

Assay: Stability of the solid state form under stress conditions (high temperature and relative humidity)
Type: physicochemical
Conditions: stressed conditions, e.g. high temperature and relative humidity; solid to solid phase / polymorph transformation
From the text: Pharmaceutical molecules may display solid to solid phase transformations and transformations between polymorphs; which may detected by exposure of the solid state form to stress conditions of e.g., high temperature and high relative humidity.

CCc1cc(/C(C)=N/OCc2ccc(C3CCCCC3)c(C(F)(F)F)c2)ccc1CN1CC(C(=O)O)C1.CCc1cc(/C(C)=N/OCc2ccc(C3CCCCC3)c(C(F)(F)F)c2)ccc1CN1CC(C(=O)O)C1.O=C(O)/C=C/C(=O)O [Crystalline Siponimod fumaric acid]
thermodynamic and chemical stability of the solid state form: thermodynamically stable and steady under stressed conditions

CCc1cc(/C(C)=N/OCc2ccc(C3CCCCC3)c(C(F)(F)F)c2)ccc1CN1CC(C(=O)O)C1.CCc1cc(/C(C)=N/OCc2ccc(C3CCCCC3)c(C(F)(F)F)c2)ccc1CN1CC(C(=O)O)C1.O=C(O)/C=C/C(=O)O [crystalline Form 7 of Siponimod fumaric acid]
thermodynamic and chemical stability of the solid state form: thermodynamically and chemical stable
